# From US12084434B2 (Scorpion Therapeutics, Inc., priority 2021, dated 2024)
# Like-named read-outs stand apart in the source and are kept apart here.
# What was measured:
# [1] = system: T47D pAKT (S473), PI3Kα H1047R mutation present; test: HTRF pAKT-T47D;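 note: assay medium was RPMI with 10% FBS and 0.2 units/ml bovine insulin, without phenol red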
# Experimental: Homogenous Time-Resolved Fluorescence (HTRF)—pAKT-T47D
# Compounds were assayed using homogeneous time-resolved fluorescence (HTRF).
# Gibco RPMI 1640 Medium, no phenol red; Gibco RPMI 1640 Medium; Gibco Trypsin-EDTA (0.5%), no phenol red; Gibco DPBS; Trypan blue solution 0.4% (Corning); Avantor Seradigm Premium Grade Fetal Bovine Serum (FBS); Greiner 784080-384 well TC treated white plates; pAKT (Ser473) HTRF; Gibco Insulin, human recombinant, zinc solution; Gibco Recovery Cell Culture Freezing Medium; Countess II FL Automated Cell Counter (ThermoFisher); Countess II Slides (ThermoFisher); Microscope; and PHERAstar FSX Microplate Reader (BMG LABTECH, Inc.).
# The scinamic cell line ID was T47D.1, the HTRF detection was pAKT (S473), a PI3Kα H1047R mutation was present, the seeding density was 5000, the timepoint was 1 hour, and the medium used was RPMI+10% FBS (no phenol red)+0.2 units/ml bovine insulin.
# • The cell density was not permitted to reach 100% confluence. The cells were split 1:5 when they reached ˜80% confluence. • Cells were split twice a week (Mon and Fri). • Cells over passage 18 were not used (˜2 months of maintenance). • Antibiotics were not used for tissue culture maintenance or assays. […] Protocol Day1
# The procedure was as follows: • 1. Prepared ARP: • a. Stamped 12.5 nL from 10 μmM source plate to destination plate using Echo. Sealed plate immediately and froze at −20° C. if it was not used on the same day. • b. If a frozen ARP was used, the plate was thawed and spun at 1000 rpm×1 min. • 2. Preparation of cells (adherent): • a. Aspirated media from cells. Washed cells with sterile 1XPBS. Aspirated PBS and added appropriate amount of Trypsin. • b. Once cells were fully trypsinized, added appropriate media to resuspend cells. Transferred cells to a 15 mL or 50 mL conical tube. • c. Counted cells on the Countess II Cell Counter. • 3. Plating of cells: • a. Prepared cells at appropriate plating density. Dispensed 12 μL of diluted cells per well of a Greiner 784080-384 well TC treated white plate using a Multidrop Combi to columns 1-23. Added 12 uL of appropriate phenol free media only to column 24. • b. Placed plates in 37° C. tissue culture incubator for appropriate treatment time (refer to “Assay” table). • 4. Prepared HTRF Lysis Buffer • a. Calculate the amount of HTRF lysis buffer master mix needed to perform the desired experiments plus any extra dead volume required for dispensing (4 μL required per well). […] Add 4 uL Lysis buffer master mix to all wells with sample or DMSO. Centrifuge the plates for 1 minute at 1000 rpm. • c. Incubate at room temperature for 30 minutes. • 5. Prepared HTRF Antibody • a.
# [2] = target: T1, PI3Kα H1047R protein (p110-α H1047R complexed with truncated p85-α) (Homo sapiens, UniProt P42336, H1047R); test: Surface Plasmon Resonance (SPR) binding, wortmannin-blocked protein; conditions: Biacore 8K, ATP site blocked with 1 μM wortmannin, 25° C.
# T1 construct: The protein contained a full-length p110-α subunit harboring the H1047R mutation
# T1 sequence (P42336 whole entry H1047R, the tested form may be a part): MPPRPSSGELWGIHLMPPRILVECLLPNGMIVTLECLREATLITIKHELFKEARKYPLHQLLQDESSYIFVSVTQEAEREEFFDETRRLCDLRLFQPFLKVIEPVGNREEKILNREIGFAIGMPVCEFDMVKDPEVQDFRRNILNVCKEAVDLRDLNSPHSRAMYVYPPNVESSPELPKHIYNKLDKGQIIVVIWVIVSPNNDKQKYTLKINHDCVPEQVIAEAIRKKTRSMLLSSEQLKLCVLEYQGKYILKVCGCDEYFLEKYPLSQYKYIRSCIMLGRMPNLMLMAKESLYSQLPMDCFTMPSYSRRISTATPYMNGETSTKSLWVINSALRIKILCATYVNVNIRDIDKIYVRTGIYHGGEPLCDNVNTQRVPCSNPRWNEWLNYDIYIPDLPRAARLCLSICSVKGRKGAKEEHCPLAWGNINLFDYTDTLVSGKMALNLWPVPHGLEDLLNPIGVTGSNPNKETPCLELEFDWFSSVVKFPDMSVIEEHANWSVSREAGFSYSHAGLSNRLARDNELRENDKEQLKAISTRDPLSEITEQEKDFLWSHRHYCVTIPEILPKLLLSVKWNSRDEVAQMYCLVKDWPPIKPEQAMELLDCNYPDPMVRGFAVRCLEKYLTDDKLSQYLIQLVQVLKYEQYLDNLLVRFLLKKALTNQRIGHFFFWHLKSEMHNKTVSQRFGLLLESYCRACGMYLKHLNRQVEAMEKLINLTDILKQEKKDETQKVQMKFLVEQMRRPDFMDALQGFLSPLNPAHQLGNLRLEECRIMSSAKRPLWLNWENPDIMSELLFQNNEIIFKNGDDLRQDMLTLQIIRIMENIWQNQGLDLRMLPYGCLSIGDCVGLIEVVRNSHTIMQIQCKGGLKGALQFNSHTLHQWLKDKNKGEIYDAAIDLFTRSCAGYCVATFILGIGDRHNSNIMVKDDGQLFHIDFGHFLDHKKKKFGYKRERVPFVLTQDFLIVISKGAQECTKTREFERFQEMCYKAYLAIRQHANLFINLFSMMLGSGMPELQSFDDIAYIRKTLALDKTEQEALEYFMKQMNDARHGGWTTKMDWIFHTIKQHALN
# T1 sequence (P27986 322-694 partner limits assumed): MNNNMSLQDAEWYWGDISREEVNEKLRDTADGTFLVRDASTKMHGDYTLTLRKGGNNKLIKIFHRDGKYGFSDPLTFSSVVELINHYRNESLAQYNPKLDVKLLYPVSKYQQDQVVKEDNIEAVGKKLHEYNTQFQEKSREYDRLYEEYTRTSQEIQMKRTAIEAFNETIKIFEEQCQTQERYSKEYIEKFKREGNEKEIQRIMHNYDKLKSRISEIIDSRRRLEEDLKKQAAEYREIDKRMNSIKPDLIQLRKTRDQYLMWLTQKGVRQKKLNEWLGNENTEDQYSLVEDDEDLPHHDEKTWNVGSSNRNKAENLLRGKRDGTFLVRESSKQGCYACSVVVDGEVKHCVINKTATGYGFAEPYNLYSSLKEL
# Experimental: Surface Plasmon Resonance (SPR)
# SPR experiments were performed on a Biacore 8K instrument. A biotinylated recombinant PI3Kα H1047R protein was used in this study. The protein contained a full-length p110-α subunit harboring the H1047R mutation with an N-terminal AviTag, complexed with a truncated p85-α subunit (amino acid residues 322-694). The protein was first incubated with 1 μM wortmannin for 30 min at RT to covalently block the ATP binding site, then immobilized onto a streptavidin sensor chip by flowing the protein through the sensor chip at typically 20 μg/mL concentration and 2 μL/min flow rate for 1200 seconds. Compound binding affinities were measured in the multi-cycle kinetics mode, at 90 μL/min flow rate with 90 seconds association time and 240 seconds dissociation time. The running buffer contained 50 mM Tris, pH 7.5, 150 mM NaCl, 0.01% Brij35, 1 mM DTT, 1 mM MgCl2, 0.05% Tween-20 and 2% DMSO. Temperature was maintained at 25° C. during experiments.
# [3] = Homo sapiens, T47D, 1 h, read-out: T47D pAKT IC50 (nM), T47D.1 cells, pAKT (S473) HTRF, 1 hour
"IC50 [1, 3] [nM]",Kd [2] [µM],"IC50 ([1]; read-out: T47D pAKT IC50, T47D.1 cells, pAKT (S473) HTRF, 1 hour) [nM]",SMILES
1000 to 5000,< 0.1,–,"Cc1c([C@@H](NC(=O)Nc2ccc(C(=O)N3CC(F)C3)nc2)C(C)C)oc2ccc(F)cc12 [Compound 64, (S)-1-(1-(5-fluoro-3-methylbenzofuran-2-yl)-2-methylpropyl)-3-(6-(3-fluoroazetidine-1-carbonyl)pyridin-3-yl)urea]"
1000 to 5000,0.1 to 0.25,–,"Cc1c([C@@H](NC(=O)Nc2ccc(C(=O)N(C)C)nc2)C(C)C)oc2ccc(F)cc12 [Compound 65, (S)-5-(3-(1-(5-fluoro-3-methylbenzofuran-2-yl)-2-methylpropyl)ureido)-N,N-dimethylpicolinamide]"
–,< 0.1,1000 to 5000,"Cc1c([C@@H](NC(=O)Nc2cnc(N)nc2)C(C)C)oc2ccc(F)cc12 [Compound 66, (S)-1-(2-aminopyrimidin-5-yl)-3-(1-(5-fluoro-3-methylbenzofuran-2-yl)-2-methylpropyl)urea]"
< 1000,< 0.1,–,"Cc1c([C@@H](NC(=O)Nc2ccc(N3CCC3)nc2)C(C)C)oc2ccc(F)cc12 [Compound 71, (S)-1-(6-(azetidin-1-yl)pyridin-3-yl)-3-(1-(5-fluoro-3-methylbenzofuran-2-yl)-2-methylpropyl) urea]"
< 1000,< 0.1,–,"Cc1c([C@@H](NC(=O)Nc2cnc(N3CC(F)(F)C3)nc2)C(C)C)oc2ccc(F)cc12 [Compound 72, (S)-1-(2-(3,3-difluoroazetidin-1-yl)pyrimidin-5-yl)-3-(1-(5-fluoro-3-methylbenzofuran-2-yl)-2-methylpropyl)urea]"
< 1000,< 0.1,–,"Cc1c([C@@H](NC(=O)Nc2cnc(N3CC(F)C3)nc2)C(C)C)oc2ccc(F)cc12 [Compound 73, (S)-1-(1-(5-fluoro-3-methylbenzofuran-2-yl)-2-methylpropyl)-3-(2-(3-fluoroazetidin-1-yl)pyrimidin-5-yl)urea]"
< 1000,< 0.1,–,Cc1c([C@@H](NC(=O)Nc2cnc(N3CCC3)nc2)C(C)C)oc2ccc(F)cc12 [Compound 74]
< 1000,< 0.1,–,"Cc1c([C@@H](NC(=O)Nc2cnc(N)nc2)C(C)C)oc2c(F)cc(F)cc12 [Compound 75, (S)-1-(2-aminopyrimidin-5-yl)-3-(1-(5,7-difluoro-3-methylbenzofuran-2-yl)-2-methylpropyl)urea]"
